Laboratory results taken from patent US20090076044A1, “VEGFR INHIBITORS CONTAINING A ZINC BINDING MOIETY” (priority 2007, published 2009).
Read-outs that look alike come from different tables or passages of the source.

What was measured:
Assay type in all cases: biochemical
human VEGFR2 = molecular target: T1, human VEGFR2 (Homo sapiens, UniProt P35968); experiment: VEGFR2/KDR radioisotope kinase assay
T1 construct: kinase domain (amino acids 790 to end) fragment; 6xHis (N); made in house; host or cells: Sf21 insect cells (baculovirus)
Method: (a) An In Vitro Assay which-Determines the Ability of a Test Compound to Inhibit a Receptor Tyrosine Kinase.
The ability of compounds to inhibit receptor kinase (VEGFR2 and PDGFR-beta) activity was assayed using standard radioisotope assay for kinase. […] The proteins were purified using Ni2+/NTA agarose affinity column to purity
>85% as determined by coomassie blue-stained SDS-PAGE gel. For VEGFR2/KDR assay, p33 ATP tracers were incubated with purified recombinant VEGFR2 kinase to monitor the enzyme activity. In this assay, reactions were carried out in the presence of 0.1 mg/ml VEGFR2 kinase and 0.33 mg/ml myelin basic protein. The reaction was carried out at 30° C. for 120 minutes in a final assay condition contained 50 mM Tris-HCl, pH 7.5, 300 mM NaCl, 0.1 mM EGTA, 0.03% Brij 35, 270 mM sucrose, 1 mM benzamidine, 0.2 mM PMSF, 0.1% 2-mercaptoethanol and 100 μM ATP. An equal volume of 25% TCA was added to stop the reaction and precipitate the labeled proteins. Precipitated proteins were trapped onto glass fiber B filterplates and excess unlabeled p33 ATP was washed off. The plates were allowed to air-dry prior to the addition of 30 uL/well of Packard Microscint 20. The amount of incorporated isotope was measured using a Perkin Elmer TopCount plate reader. Different concentrations of compounds were added to reaction to assess the activity of compounds to inhibit VEGFR2 kinase. IC50 was calculated using Prism software with sigmoidal dose-response curve fitting.

human HER2 = molecular target: T2, human HER2 (Homo sapiens, UniProt P04626); experiment: HER2 enzymatic activity assay
T2 construct: human HER2 amino acids 679-1255; host or cells: Sf9 insect cells (baculovirus)
Method: (d) An In Vitro Assay which Determines the Ability of a Test Compound to Inhibit HER2 Enzymatic Activity.
10 nM HER2 and 0.1 mg/ml polyEY were placed in the reaction buffer and 2 mM MnCl2, 1 μM ATP and 1% DMSO final were added. The reaction mixture was incubated for 2 hours at room temperature.
Purity>90% by SDS PAGE and Coomassie blue staining. MW=91.6 kDa. Specific Activity of 40 U/mg, where one unit of activity is defined as 1 nmol phosphate incorporated into 30 ug/ml Poly (Glu:Tyr)4:1 substrate per minute at 30° C. with a final ATP concentration of 100 μM. Enzyme is in 25 mM Tris-HCl, pH 8.0, 100 mM NaCl, 0.05% Tween-20, 50% glycerol, 10 mM reduced glutathione, and 3 mM DTT.

human c-Met = molecular target: T3, human c-Met (Homo sapiens, UniProt P08581); experiment: c-Met radioisotope kinase assay; conditions: 1 μM ATP
T3 construct: recombinant human catalytic domain (amino acids 956-1390); His; host or cells: insect cells
Method: (c) An In Vitro Assay which Determines the Ability of a Test Compound to Inhibit c-MET Enzymatic Activity.
For c-Met assay, p33 ATP tracers were incubated with purified recombinant c-Met kinase to monitor the enzyme activity. C-Met (Accession number: GenBank NP_000236.2) is characterized as follows: recombinant human catalytic domain (amino acids 956-1390) with histidine-tagged, expressed in insect cells. Purity≧90% by SDS-PAGE and Coomassie blue staining. MW=53.7 kDa. Specific Activity of 373 nmole of phosphate transferred to myelin basic protein (MBP) per minute per mg of total protein at 30° C. Activity determined at a final protein concentration of 2 μg/mL. Enzyme at 0.41 mg/ml in 20 mM Tris (pH 7.5), 100 mM NaCl, 0.5 mM EDTA, 0.05% Triton X-100, 2 mM DTT, 50% Glycerol. In this assay, reactions were carried out in the presence of 10 nM c-Met kinase and 5 uM myelin basic protein. The reaction was carried out at 30° C. for 120 minutes in a final assay condition contained 20 mM HEPES, pH 7.5, 10 mM MgCl2, 1 mM EGTA, 0.02% Brij 35, 0.02 mg/ml BSA, 0.1 mM Na3VO4, 2 mM DTT and 1 μM ATP. An equal volume of 25% TCA was added to stop the reaction and precipitate the labeled proteins. Precipitated proteins were trapped onto glass fiber B filterplates and excess unlabeled p33 ATP was washed off. The plates were allowed to air-dry prior to the addition of 30 uL/well of Packard Microscint 20. The amount of incorporated isotope was measured using a Perkin Elmer TopCount plate reader. Different concentrations of compounds were added to reaction to assess the activity of compounds to inhibit c-Met kinase. IC50 was calculated using Prism software with sigmoidal dose-response curve fitting.

[1] = 100 μM ATP, read-out: VEGFR2 IC50
[2] = 1 μM ATP, read-out: HER2/ErbB IC50

T1 sequence (P35968 790-1356 limits assumed): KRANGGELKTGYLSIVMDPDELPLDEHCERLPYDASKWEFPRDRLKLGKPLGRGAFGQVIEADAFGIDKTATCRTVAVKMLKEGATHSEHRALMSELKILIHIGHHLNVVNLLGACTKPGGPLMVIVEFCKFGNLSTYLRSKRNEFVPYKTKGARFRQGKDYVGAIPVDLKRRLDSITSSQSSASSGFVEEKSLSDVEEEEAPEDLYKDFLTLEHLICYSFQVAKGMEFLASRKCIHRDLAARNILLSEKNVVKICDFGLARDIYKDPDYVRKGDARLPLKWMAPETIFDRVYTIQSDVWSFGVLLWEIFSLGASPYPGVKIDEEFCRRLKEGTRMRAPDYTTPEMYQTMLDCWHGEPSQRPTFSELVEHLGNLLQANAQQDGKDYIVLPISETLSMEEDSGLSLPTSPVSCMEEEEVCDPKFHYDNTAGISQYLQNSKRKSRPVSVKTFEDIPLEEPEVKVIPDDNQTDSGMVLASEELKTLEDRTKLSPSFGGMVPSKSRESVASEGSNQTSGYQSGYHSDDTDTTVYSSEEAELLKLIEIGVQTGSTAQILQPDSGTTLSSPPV
T3 sequence (P08581 956-1390): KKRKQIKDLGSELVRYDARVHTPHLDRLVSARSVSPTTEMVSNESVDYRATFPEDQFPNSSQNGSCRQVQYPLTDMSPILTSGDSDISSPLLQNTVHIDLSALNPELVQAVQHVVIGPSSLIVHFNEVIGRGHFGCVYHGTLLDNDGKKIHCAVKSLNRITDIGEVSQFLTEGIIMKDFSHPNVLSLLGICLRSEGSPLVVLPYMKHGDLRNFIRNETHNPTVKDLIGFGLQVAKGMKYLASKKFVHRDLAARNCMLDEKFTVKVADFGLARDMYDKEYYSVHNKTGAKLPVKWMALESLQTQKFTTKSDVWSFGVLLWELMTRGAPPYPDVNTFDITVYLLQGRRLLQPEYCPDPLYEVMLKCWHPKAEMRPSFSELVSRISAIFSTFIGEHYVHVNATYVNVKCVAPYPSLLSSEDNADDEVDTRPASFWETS
T2 sequence (P04626 679-1255): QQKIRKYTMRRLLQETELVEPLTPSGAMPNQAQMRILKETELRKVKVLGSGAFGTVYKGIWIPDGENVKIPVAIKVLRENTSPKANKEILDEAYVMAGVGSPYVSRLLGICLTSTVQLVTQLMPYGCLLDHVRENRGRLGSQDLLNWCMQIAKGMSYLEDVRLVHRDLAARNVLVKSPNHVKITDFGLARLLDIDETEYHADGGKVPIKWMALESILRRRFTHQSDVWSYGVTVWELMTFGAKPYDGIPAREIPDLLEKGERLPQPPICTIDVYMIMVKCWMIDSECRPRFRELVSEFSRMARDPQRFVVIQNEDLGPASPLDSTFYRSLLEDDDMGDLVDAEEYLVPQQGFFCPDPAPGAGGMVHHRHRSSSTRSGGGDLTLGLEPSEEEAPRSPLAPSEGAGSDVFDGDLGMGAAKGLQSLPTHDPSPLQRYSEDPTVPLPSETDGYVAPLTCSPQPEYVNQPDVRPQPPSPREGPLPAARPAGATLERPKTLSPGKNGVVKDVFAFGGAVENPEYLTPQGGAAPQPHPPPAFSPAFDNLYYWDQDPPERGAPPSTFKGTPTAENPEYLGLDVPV

SMILES | IC50 (human VEGFR2; [1]) | IC50 (human HER2; [2]) | IC50 (human c-Met) | IC50 (human VEGFR2) | IC50 (human HER2)
COc1cc2ncnc(Nc3ccc4occc4c3)c2cc1OCCCCCCC(=O)NO [Compound 2, 7-(4-(benzofuran-5-ylamino)-7-methoxyquinazolin-6-yloxy)-N-hydroxyheptanamide] | 1000 to 10000 nM | < 100 nM |  |  | 
COc1cc2c(Oc3ccc4[nH]c(C)cc4c3F)ncnc2cc1OCCCCCCC(=O)NO [Compound 11, 7-(4-(4-fluoro-2-methyl-1H-indol-5-yloxy)-6-methoxyquinazolin-7-yloxy)-N-hydroxyheptanamide] |  |  | 1000 to 10000 nM | < 100 nM | 1000 to 10000 nM
Cc1cc2c(F)c(Oc3ncnc4cc(OCCCN5CCCC5)c(OCCCCCC(=O)NO)cc34)ccc2[nH]1 [Compound 16, 6-(4-(4-fluoro-2-methyl-1H-indol-5-yloxy)-7-(3-(pyrrolidin-1-yl)propoxy)quinazolin-6-yloxy)-N-hydroxyhexanamide] | < 100 nM | < 100 nM | 100 to 1000 nM |  | 
Cc1cc2c(F)c(Oc3ncnc4cc(OCCCN5CCCC5)c(OCCCCCCC(=O)NO)cc34)ccc2[nH]1 [Compound 17] | < 100 nM | 100 to 1000 nM | < 100 nM |  | 
Cc1cc2c(F)c(Nc3ncnc4cc(OCCCN5CCCC5)c(OCCCCC(=O)NO)cc34)ccc2[nH]1 [Compound 18, 5-(4-(4-fluoro-2-methyl-1H-indol-5-ylamino)-7-(3-(pyrrolidin-1-yl)propoxy)quinazolin-6-yloxy)-N-hydroxypentanamide] | < 100 nM | < 100 nM |  |  | 
Cc1cc2c(F)c(Nc3ncnc4cc(OCCCN5CCCC5)c(OCCCCCC(=O)NO)cc34)ccc2[nH]1 [Compound 19, 6-(4-(4-Fluoro-2-methyl-1H-indol-5-ylamino)-7-(3-(pyrrolidin-1-yl)propoxy)quinazolin-6-yloxy)-N-hydroxyhexanamide] | < 100 nM | < 100 nM |  |  | 
Cc1cc2c(F)c(Nc3ncnc4cc(OCCCN5CCCC5)c(OCCCCCCC(=O)NO)cc34)ccc2[nH]1 [Compound 20, 7-(4-(4-Fluoro-2-methyl-1H-indol-5-ylamino)-7-(3-(pyrrolidin-1-yl)propoxy)quinazolin-6-yloxy)-N-hydroxyheptanamide] | < 100 nM | < 100 nM | 1000 to 10000 nM |  | 

Second part, the compound after the results:

IC50 (human VEGFR2; [1]) | IC50 (human HER2; [2]) | IC50 (human c-Met) | IC50 (human VEGFR2) | IC50 (human HER2) | SMILES
< 100 nM | 100 to 1000 nM | 1000 to 10000 nM |  |  | COc1cc2c(Oc3ccc4[nH]c(C)cc4c3F)ncnc2cc1OCCCCCC(=O)NO [Compound 10, 6-(4-(4-fluoro-2-methyl-1H-indol-5-yloxy)-6-methoxyquinazolin-7-yloxy)-N-hydroxyhexanamide]
< 100 nM | < 100 nM |  |  |  | COc1cc2c(Nc3ccc4[nH]c(C)cc4c3F)ncnc2cc1OCCCCCC(=O)NO [Compound 13, 6-(4-(4-fluoro-2-methyl-1H-indol-5-ylamino)-6-methoxyquinazolin-7-yloxy)-N-hydroxyhexanamide]
< 100 nM | 100 to 1000 nM | 1000 to 10000 nM |  |  | COc1cc2c(Nc3ccc4[nH]c(C)cc4c3F)ncnc2cc1OCCCCCCC(=O)NO [Compound 14, 7-(4-(4-fluoro-2-methyl-1H-indol-5-ylamino)-6-methoxy-quinazolin-7-yloxy)-N-hydroxyheptanamide]
